Test results reported in patent US20240246967A1, “AXL COMPOUNDS” (ARCUS BIOSCIENCES, INC., priority 2021, published 2024).

Legend:
human TYRO3 = molecular target: T1, human TYRO3 (Homo sapiens, UniProt Q06418); assay: HTRF KinEASE-TK biochemical potency assay, TYRO3; details: 1 nM TYRO3, 700 μM ATP, 800 nM TK Substrate-biotin
T1 construct: purchased Invitrogen
T1 sequence (Q06418 41-890): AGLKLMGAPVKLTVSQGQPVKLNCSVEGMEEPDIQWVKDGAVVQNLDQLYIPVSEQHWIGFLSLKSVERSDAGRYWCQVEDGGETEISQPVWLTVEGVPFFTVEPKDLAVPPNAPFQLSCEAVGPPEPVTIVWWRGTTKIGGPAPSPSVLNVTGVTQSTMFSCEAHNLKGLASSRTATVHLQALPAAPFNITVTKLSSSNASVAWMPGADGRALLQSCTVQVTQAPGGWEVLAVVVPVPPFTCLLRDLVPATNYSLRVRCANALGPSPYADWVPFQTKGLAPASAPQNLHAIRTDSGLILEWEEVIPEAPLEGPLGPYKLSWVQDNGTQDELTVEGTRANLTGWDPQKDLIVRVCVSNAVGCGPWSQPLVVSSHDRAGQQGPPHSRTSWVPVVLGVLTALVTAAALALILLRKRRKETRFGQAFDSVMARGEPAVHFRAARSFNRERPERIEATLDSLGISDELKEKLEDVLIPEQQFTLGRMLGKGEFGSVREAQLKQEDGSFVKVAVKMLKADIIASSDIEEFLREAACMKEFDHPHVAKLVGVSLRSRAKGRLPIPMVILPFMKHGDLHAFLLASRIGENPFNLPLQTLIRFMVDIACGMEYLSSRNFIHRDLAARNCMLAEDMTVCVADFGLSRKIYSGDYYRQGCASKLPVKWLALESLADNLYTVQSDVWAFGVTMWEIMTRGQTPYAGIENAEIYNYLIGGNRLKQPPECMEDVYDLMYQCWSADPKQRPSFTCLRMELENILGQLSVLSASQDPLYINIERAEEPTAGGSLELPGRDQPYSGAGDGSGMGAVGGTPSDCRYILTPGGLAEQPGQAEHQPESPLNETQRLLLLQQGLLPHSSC
Method: (§1) Purified recombinant human AXL, TYRO3 and MER proteins were purchased from Invitrogen™. 10 nM AXL, 2 nM TYRO3 or MER were incubated with varying concentrations of compounds in 50 mM HEPES, pH 7.4, 10 mM MgCl2, 0.01% BSA, 1 mM DTT and 2% DMSO in a total volume of 20 μl in a 384-well microplate (Corning™ #3640) at RT for 1 h. The AXL, TYRO3 and MER enzymatic reaction was initiated by transferring 10 μl of enzyme and compound mixture into 10 μl of 1.6 μM TK Substrate-biotin (HTRF® KinEASE-TK kit, Cisbio) and 1400 μM ATP pre-incubated in 50 mM HEPES, pH 7.4, 10 mM MgCl2, 0.01% BSA, 1 mM DTT in a 384-well microplate (Corning™ #3640) at RT, giving the final reaction conditions: 5 nM AXL, 1 nM TYRO3 or MER, 800 nM TK Substrate-biotin and 700 μM ATP in 50 mM HEPES, pH 7.4, 10 mM MgCl2, 0.01% BSA, 1 mM DTT and 1% DMSO with varying concentrations of compounds. Following 2 h incubation at RT, the AXL, TYRO3 and MER enzymatic reaction was stopped by transfer of 10 μl of reaction into 10 μl of detection mix (400 nM Streptavidin-XL665, 200-fold dilution TK Antibody-Cryptate and detection buffer, HTRF® KinEASE-TK kit, Cisbio) in a white 384-well microplate (Perkin Elmer, OptiPlate 384). After 1 h incubation at RT, the plate was put into a plate reader (Evision) to read at 665/620 nm (acceptor/donor) for HTRF. The value of the DMSO blank (MIN inhibition=100% activity) was used as a negative control. The positive control was established by adding 5 μl of enzyme and DMSO mixture into 10 μl of detection mix followed by addition of 5 μl of TK Substrate-biotin and ATP mixture (MAX inhibition=0% activity). To calculate the percent activity, Equation 1 was used. Ratio 665/620 is the value at a given compound concentration: […]

Axl = molecular target: T2, Axl (Homo sapiens, UniProt P30530); assay: HTRF KinEASE-TK biochemical potency assay, AXL; set-up: purchased Invitrogen; details: 5 nM AXL, 700 μM ATP, 800 nM TK Substrate-biotin
T2 sequence (P30530 26-894): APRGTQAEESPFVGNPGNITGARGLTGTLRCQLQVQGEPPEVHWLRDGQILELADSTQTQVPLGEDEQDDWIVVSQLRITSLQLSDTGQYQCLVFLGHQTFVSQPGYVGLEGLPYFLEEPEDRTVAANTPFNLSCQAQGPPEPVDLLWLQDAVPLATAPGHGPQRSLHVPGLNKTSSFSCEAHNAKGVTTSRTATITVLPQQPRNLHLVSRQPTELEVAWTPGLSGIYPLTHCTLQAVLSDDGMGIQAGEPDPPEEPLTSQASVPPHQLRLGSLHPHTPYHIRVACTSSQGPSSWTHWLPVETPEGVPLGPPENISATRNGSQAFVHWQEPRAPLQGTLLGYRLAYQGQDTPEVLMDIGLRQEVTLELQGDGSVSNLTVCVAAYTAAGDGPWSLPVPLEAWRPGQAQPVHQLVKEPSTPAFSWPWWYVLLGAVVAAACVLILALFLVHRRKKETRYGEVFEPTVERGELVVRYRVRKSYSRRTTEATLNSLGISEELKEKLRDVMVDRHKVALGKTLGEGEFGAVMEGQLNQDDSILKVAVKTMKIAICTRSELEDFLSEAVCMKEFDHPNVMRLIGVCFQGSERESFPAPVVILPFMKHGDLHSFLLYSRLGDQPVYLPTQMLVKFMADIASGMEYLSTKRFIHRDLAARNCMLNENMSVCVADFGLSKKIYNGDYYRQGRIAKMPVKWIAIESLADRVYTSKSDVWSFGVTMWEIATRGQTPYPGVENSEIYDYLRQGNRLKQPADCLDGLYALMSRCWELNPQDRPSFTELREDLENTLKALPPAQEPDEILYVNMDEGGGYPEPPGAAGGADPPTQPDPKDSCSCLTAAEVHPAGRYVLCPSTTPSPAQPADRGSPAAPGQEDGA
Method: as §1

| IC50 (human TYRO3) | IC50 (Axl) | SMILES |
| --- | --- | --- |
| 100 to 1000 nM | < 100 nM | C[C@@H]1CCCN1C1(C)CCc2ccc(-c3cnc4[nH]cc(-c5ccc(S(=O)(=O)C6CC6)cc5)c4c3)cc2CC1 (stereo partly drawn) [Example 105, (2R)-1-(2-{3-[4-(Cyclopropanesulfonyl)phenyl]-1H-pyrrolo[2,3-b]pyridin-5-yl}-7-methyl-6,7,8,9-tetrahydro-5H-benzo[7]annulen-7-yl)-2-methylpyrrolidine] |
| 100 to 1000 nM | < 100 nM | CC(C)(O)c1ccc(-c2n[nH]c3ncc(-c4ccc5c(c4)CCC4(CCCN4)CC5)cc23)cc1Cl (stereo not drawn) [Example 96, 2-[2-Chloro-4-(5-{5,6,8,9-tetrahydrospiro[benzo[7]annulene-7,2′-pyrrolidin]-3-yl}-1H-pyrazolo[3,4-b]pyridin-3-yl)phenyl]propan-2-ol] |
| < 100 nM | < 100 nM | O=S(=O)(c1ccc(-c2n[nH]c3ncc(-c4ccc5c(c4)CC[C@@H](N4CCCC4)CC5)cc23)cc1)C1CC1 [Example 40, (S)-3-(4-(Cyclopropylsulfonyl)phenyl)-5-(7-(pyrrolidin-1-yl)-6,7,8,9-tetrahydro-5H-benzo[7]annulen-2-yl)-1H-pyrazolo[3,4-b]pyridine] |
| > 1000 nM | < 100 nM | C[C@@H]1CCCN1C1(C)CCc2ccc(-c3cnc4[nH]nc(-c5ccc(C(=O)N6CCCC6)cc5)c4c3)cc2CC1 (stereo partly drawn) [Example 118, (2R)-2-Methyl-1-(7-methyl-2-{3-[4-(pyrrolidine-1-carbonyl)phenyl]-1H-pyrazolo[3,4-b]pyridin-5-yl}-6,7,8,9-tetrahydro-5H-benzo[7]annulen-7-yl)pyrrolidine] |
| > 1000 nM | 100 to 1000 nM | C[C@@H]1CCCN1[C@H]1CCc2cc(-c3cnc4[nH]nc(-c5ccc(S(=O)(=O)C6CC6)cc5)c4c3)cnc2CC1 [Example 102, (2R)-1-[(7S)-3-{3-[4-(Cyclopropanesulfonyl)phenyl]-1H-pyrazolo[3,4-b]pyridin-5-yl}-5H,6H,7H,8H,9H-cyclohepta[b]pyridin-7-yl]-2-methylpyrrolidine] |
| < 100 nM | < 100 nM | Cc1cc(-c2n[nH]c3ncc(-c4ccc5c(c4)CCC(N4CCCC4)CC5)cc23)ccc1C(=O)N1CCNCC1 (stereo not drawn) [Example 47, 1-(2-Methyl-4-{5-[7-(pyrrolidin-1-yl)-6,7,8,9-tetrahydro-5H-benzo[7]annulen-2-yl]-1H-pyrazolo[3,4-b]pyridin-3-yl}benzoyl)piperazine] |
| < 100 nM | < 100 nM | Cc1cc(-c2n[nH]c3ncc(-c4ccc5c(c4)CC[C@@H](N4CCCC4)CC5)cc23)cc(Cl)c1C(N)=O [Example 50, 2-Chloro-6-methyl-4-{5-[(7S)-7-(pyrrolidin-1-yl)-6,7,8,9-tetrahydro-5H-benzo[7]annulen-2-yl]-1H-pyrazolo[3,4-b]pyridin-3-yl}benzamide] |
| 100 to 1000 nM | < 100 nM | CN(C)C(=O)c1ccc(-c2n[nH]c3ncc(-c4ccc5c(c4)CC[C@@H](N4C6COCC4C6)CC5)cc23)cc1 [Example 125, N,N-Dimethyl-4-{5-[(7S)-7-{3-oxa-6-azabicyclo[3.1.1]heptan-6-yl}-6,7,8,9-tetrahydro-5H-benzo[7]annulen-2-yl]-2H-pyrazolo[3,4-b]pyridin-3-yl}benzamide] |
| 100 to 1000 nM | < 100 nM | C[C@@H]1CCCN1C1(C)CCc2ccc(-c3cnc4[nH]nc(-c5ccc(C(C)(C)O)c(Cl)c5)c4c3)cc2CC1 (stereo partly drawn) [Example 57, 2-[2-Chloro-4-(5-{7-methyl-7-[(2R)-2-methylpyrrolidin-1-yl]-6,7,8,9-tetrahydro-5H-benzo[7]annulen-2-yl}-1H-pyrazolo[3,4-b]pyridin-3-yl)phenyl]propan-2-ol] |
| < 100 nM | < 100 nM | CS(=O)(=O)c1ccc(-c2n[nH]c3ncc(-c4ccc5c(c4)CCN(C4CCCC4)CC5)cc23)cc1Cl [Example 31, 7-(3-(3-Chloro-4-(methylsulfonyl)phenyl)-1H-pyrazolo[3,4-b]pyridin-5-yl)-3-cyclopentyl-2,3,4,5-tetrahydro-1H-benzo[d]azepine] |
| < 100 nM | < 100 nM | COCCS(=O)(=O)c1ccc(-c2n[nH]c3ncc(-c4ccc5c(c4)CCC(C)(N4CCC[C@H]4C)CC5)cc23)cc1 (stereo partly drawn) [Example 111, (2R)-1-(2-{3-[4-(2-Methoxyethanesulfonyl)phenyl]-1H-pyrazolo[3,4-b]pyridin-5-yl}-7-methyl-6,7,8,9-tetrahydro-5H-benzo[7]annulen-7-yl)-2-methylpyrrolidine] |
| < 100 nM | < 100 nM | C[C@@H]1CCCN1C1(C)CCc2ccc(-c3cnc4[nH]nc(-c5ccc(S(=O)(=O)N6CCC6)cc5)c4c3)cc2CC1 (stereo partly drawn) [Example 104, (2R)-1-(2-{3-[4-(Azetidine-1-sulfonyl)phenyl]-1H-pyrazolo[3,4-b]pyridin-5-yl}-7-methyl-6,7,8,9-tetrahydro-5H-benzo[7]annulen-7-yl)-2-methylpyrrolidine] |
| > 1000 nM | < 100 nM | O=C1CCCN1c1ccc(-c2n[nH]c3ncc(-c4ccc5c(c4)CC[C@@H](N4C6COCC4C6)CC5)cc23)cc1 [Example 122, 1-(4-{5-[(7S)-7-{3-oxa-6-azabicyclo[3.1.1]heptan-6-yl}-6,7,8,9-tetrahydro-5H-benzo[7]annulen-2-yl]-2H-pyrazolo[3,4-b]pyridin-3-yl}phenyl)pyrrolidin-2-one] |
| < 100 nM | < 100 nM | C[C@@H]1CCCN1C1CCc2ccc(-c3cnc4[nH]nc(-c5ccc(S(C)(=O)=O)cc5)c4c3)cc2CC1 (stereo partly drawn) [Example 38, 5-(7-((R)-2-Methylpyrrolidin-1-yl)-6,7,8,9-tetrahydro-5H-benzo[7]annulen-2-yl)-3-(4-(methylsulfonyl)phenyl)-1H-pyrazolo[3,4-b]pyridine] |
| 100 to 1000 nM | < 100 nM | CC1(N2CCc3ccc(-c4cnc5[nH]nc(-c6ccc(S(=O)(=O)C7CC7)cc6)c5c4)cc3CC2)CCCC1 [Example 120, 7-{3-[4-(Cyclopropanesulfonyl)phenyl]-1H-pyrazolo[3,4-b]pyridin-5-yl}-3-(1-methylcyclopentyl)-2,3,4,5-tetrahydro-1H-3-benzazepine] |
